Measured values reported in patent EP4610269A1, “UROKINASE PLASMINOGEN ACTIVATOR SURFACE RECEPTOR (UPAR) LIGANDS FOR DIAGNOSTIC OR THERAPEUTIC USE” (3B Pharmaceuticals GmbH, priority 2024, dated 2025).
*1 amine or outer side, *2 acyl side, *3 side chain or, on linkers, in order; H or OH if unused. Where a SMILES comes first, the peptide text is derived from it. Bridges are numbered along the chain shown (N, C = ends). [ ]: non-standard residue; d: D form. The star is where a group is joined. DOTA = O=C(O)CN1CCN(CC(=O)O)CCN(CC(=O)*)CCN(CC(=O)O)CC1; Pro(cis-4-F) = O=C(O)[C@@H]1C[C@H](F)CN1; Dopa = N[C@@H](Cc1ccc(O)c(O)c1)C(=O)O; Bta = N[C@@H](Cc1csc2ccccc12)C(=O)O; Ser(ΨH,HPro) = O=C(O)[C@@H]1COCN1; Hyp = O=C(O)[C@@H]1C[C@@H](O)CN1; Pentanoyl(4-Me) = CC(C)CCC(=O)*; X1 = O=C(CN1CCN([*:1])CC1)[*:2]; Cha = N[C@@H](CC1CCCCC1)C(=O)O; Cit = NC(=O)NCCC[C@H](N)C(=O)O; NMeOrn = CN[C@@H](CCCN)C(=O)O; Butoxycarbonyl = CCCCOC(=O)*; Propanoyl(3-OH) = O=C(CCO)*; dNle = CCCC[C@@H](N)C(=O)O; NMeS = CN[C@@H](CO)C(=O)O; Ac6c = NC1(C(=O)O)CCCCC1; Nle = CCCC[C@H](N)C(=O)O; Orn = NCCC[C@H](N)C(=O)O; Nva = CCC[C@H](N)C(=O)O; Pentanoyl = CCCCC(=O)*; Aib = CC(C)(N)C(=O)O; X2 = CCCOC(=O)*

Legend:
[1] = biological target: T1, uPAR-expressing HEC-265 human endometrial adenocarcinoma cells (Homo sapiens, UniProt Q03405); test: Competitive FACS binding assay; conditions: pIC50 category of FACS binding
T1 construct: Cell surface uPAR-expressing HEC-265 human endometrial adenocarcinoma cells; host or cells: HEC-265
In short: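 Competitive displacement of a 10 nM biotinylated peptide from HEC-265 cells (1 h, 4 °C, PBS/1% BSA), detected via APC-streptavidin by flow cytometry. pIC50 from four-parameter logistic fit of median fluorescence versus concentration.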

human uPAR (uPAR-Fc) = biological target: T2, human uPAR (uPAR-Fc) (Homo sapiens, UniProt Q03405); test: Surface plasmon resonance (SPR) assay, single cycle kinetics; type: binding; conditions: pKD category for uPAR SPR activity assay; uPAR-Fc on Protein A-Chip, 25°C; read-out: pKD CAT (converted)
T2 construct: comprising amino acids Leu23-Arg303 according to UniProt entry Q03405.1; purchased R&D Systems 10378-UK-100
In short: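 uPAR-Fc (Leu23-Arg303 extracellular domains, human IgG1 Fc) captured on Protein A chip to ~2000 RU; single-cycle kinetics at 25°C in HEPES running buffer pH 7.4 with 0.1% DMSO. KD from double-referenced sensorgrams fitted to 1:1 Langmuir model, reported as pKD.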

T2 sequence (Q03405 23-303): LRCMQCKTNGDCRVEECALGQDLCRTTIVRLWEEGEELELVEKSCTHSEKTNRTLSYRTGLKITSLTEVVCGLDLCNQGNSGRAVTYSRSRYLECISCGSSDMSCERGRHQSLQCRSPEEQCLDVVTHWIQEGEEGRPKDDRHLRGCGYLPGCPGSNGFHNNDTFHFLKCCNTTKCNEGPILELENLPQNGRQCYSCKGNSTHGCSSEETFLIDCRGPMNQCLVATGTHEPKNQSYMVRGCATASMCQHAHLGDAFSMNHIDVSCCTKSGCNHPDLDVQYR
T1 sequence (Q03405 23-335): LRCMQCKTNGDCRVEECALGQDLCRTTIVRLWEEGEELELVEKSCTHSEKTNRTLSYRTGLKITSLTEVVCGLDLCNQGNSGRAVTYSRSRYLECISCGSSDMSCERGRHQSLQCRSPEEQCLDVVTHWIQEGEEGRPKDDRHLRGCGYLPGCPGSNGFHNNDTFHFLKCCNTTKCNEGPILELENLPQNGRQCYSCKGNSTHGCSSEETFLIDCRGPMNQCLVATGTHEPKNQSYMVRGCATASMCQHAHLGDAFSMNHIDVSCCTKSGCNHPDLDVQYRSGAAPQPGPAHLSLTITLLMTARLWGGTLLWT

SMILES	IC50 [1]	Kd (human uPAR (uPAR-Fc))
CC[C@H](C)[C@@H]1NC(=O)[C@@H]2COCN2C(=O)[C@@H]2CCCN2C(=O)[C@H](Cc2ccccc2)NC(=O)[C@H](Cc2ccc(O)cc2)NC(=O)[C@H](CCC(N)=O)NC(=O)[C@H](CCCNC(N)=O)NC(=O)[C@@H](NC(=O)CCC(C)C)CSSC[C@@H](C(N)=O)NC(=O)[C@H](CC(C)C)NC1=O [UPAR-262, iHex-[Cys-Cit-Gln-Tyr-Phe-Pro-Oxa-Ile-Leu-Cys]-NH2] ({Pentanoyl(4-Me)}-C[Cit]QYFP[Ser(ΨH,HPro)]ILC-NH2; disulfide 1-10)	≤ 10 nM	< 1.58 nM
CC[C@H](C)[C@@H]1NC(=O)[C@@H](C)NC(=O)[C@@H]2CCCN2C(=O)[C@H](C)NC(=O)[C@H](Cc2ccc(O)cc2)NC(=O)[C@H](CCC(N)=O)NC(=O)[C@H](CCCNC(N)=O)NC(=O)[C@@H](NC(=O)CCC(C)C)CSSC[C@@H](C(N)=O)NC(=O)[C@H](CC(C)C)NC1=O [UPAR-263, iHex-[Cys-Cit-Gln-Tyr-Ala-Pro-ala-Ile-Leu-Cys]-NH2] ({Pentanoyl(4-Me)}-C[Cit]QYAP[dA]ILC-NH2; disulfide 1-10)	≥ 126 nM	> 100 nM
CCCCC(=O)N[C@H]1CSSC[C@@H](C(N)=O)NC(=O)[C@H](CCC)NC(=O)C2(CCCCC2)NC(=O)[C@@H]2C[C@@H](O)CN2C(=O)[C@@H]2CCCN2C(=O)[C@H](Cc2ccccc2)NC(=O)[C@H](Cc2ccc(O)cc2)NC(=O)[C@H](CCC(N)=O)NC(=O)[C@H](CCCNC(=N)N)NC1=O [UPAR-264, Pent-[Cys-Arg-Gln-Tyr-Phe-Pro-Hyp-Egz-Nva-Cys]-NH2] (Pentanoyl-CRQYFP[Hyp][Ac6c][Nva]C-NH2; disulfide 1-10)	≤ 10 nM	< 1.58 nM
CCCCC(=O)N[C@H]1CSSC[C@@H](C(N)=O)NC(=O)[C@H](CCC)NC(=O)[C@H]([C@@H](C)CC)NC(=O)[C@H](CCCN)N(C)C(=O)[C@@H]2CCCN2C(=O)[C@H](Cc2ccccc2)NC(=O)[C@H](Cc2ccc(O)cc2)NC(=O)[C@H](CCCCNC(=O)CN2CCN(CC(=O)O)CCN(CC(=O)O)CCN(CC(=O)O)CC2)NC(=O)[C@H](CCCNC(N)=O)NC1=O [UPAR-265, Pent-[Cys-Cit-Lys(DOTA)-Tyr-Phe-Pro-Nmo-Ile-Nva-Cys]-NH2] (Pentanoyl-C[Cit]K(DOTA)YFP[NMeOrn]I[Nva]C-NH2; disulfide 1-10)	39.8 to 100 nM	> 100 nM
CCCCC(=O)N[C@H]1CSSC[C@@H](C(N)=O)NC(=O)[C@H](CCC)NC(=O)[C@H]([C@@H](C)CC)NC(=O)[C@@H]2C[C@@H](O)CN2C(=O)[C@H](CC2CCCCC2)NC(=O)[C@H](Cc2ccccc2)NC(=O)[C@H](Cc2ccc(O)cc2)NC(=O)[C@H](CCC(N)=O)NC(=O)[C@H](CCCNC(=N)N)NC1=O [UPAR-266, Pent-[Cys-Arg-Gln-Tyr-Phe-Cha-Hyp-Ile-Nva-Cys]-NH2] (Pentanoyl-CRQYF[Cha][Hyp]I[Nva]C-NH2; disulfide 1-10)	≤ 10 nM	< 1.58 nM
CCCOC(=O)N[C@H]1CSSC[C@@H](C(N)=O)NC(=O)[C@H](CCC)NC(=O)[C@H]([C@@H](C)CC)NC(=O)[C@@H]2C[C@@H](O)CN2C(=O)[C@@H]2CCCN2C(=O)[C@H](Cc2ccccc2)NC(=O)[C@H](Cc2ccc(O)cc2)NC(=O)[C@H](CCCCNC(=O)CN2CCN(CC(=O)O)CCN(CC(=O)O)CCN(CC(=O)O)CC2)NC(=O)[C@H](CCCNC(N)=O)NC1=O [UPAR-267, Prpoc-[Cys-Cit-Lys(DOTA)-Tyr-Phe-Pro-Hyp-Ile-Nva-Cys]-NH2] (X2-C[Cit]K(DOTA)YFP[Hyp]I[Nva]C-NH2; disulfide 1-10)	39.8 to 100 nM	10 to 100 nM
CC[C@H](C)[C@@H]1NC(=O)[C@@H](C)NC(=O)[C@@H]2CCCN2C(=O)[C@H](Cc2ccccc2)NC(=O)[C@H](Cc2ccc(O)cc2)NC(=O)C(C)(C)NC(=O)[C@H](CCCNC(N)=O)NC(=O)[C@@H](NC(=O)CCC(C)C)CSSC[C@@H](C(N)=O)NC(=O)[C@H](CC(C)C)NC1=O [UPAR-269, iHex-[Cys-Cit-Aib-Tyr-Phe-Pro-ala-Ile-Leu-Cys]-NH2] ({Pentanoyl(4-Me)}-C[Cit][Aib]YFP[dA]ILC-NH2; disulfide 1-10)	12.6 to 31.6 nM	1.58 to 10 nM
CCCC[C@@H]1NC(=O)[C@H](CCCNC(=N)N)NC(=O)[C@@H](NC(=O)[C@H](CC(C)C)NC(=O)[C@H](CC(=O)O)NC(C)=O)CSSC[C@@H](C(N)=O)NC(=O)[C@H](CC(C)C)NC(=O)[C@H]([C@@H](C)CC)NC(=O)[C@H](C)NC(=O)[C@@H]2CCCN2C(=O)[C@H](Cc2ccccc2)NC(=O)[C@H](Cc2ccc(O)cc2)NC1=O [UPAR-270, Ac-Asp-Leu-[Cys-Arg-Nle-Tyr-Phe-Pro-Ala-Ile-Leu-Cys]-NH2] (Ac-DLCR[Nle]YFPAILC-NH2; disulfide 3-12)	≤ 10 nM	< 1.58 nM
CCCCC(=O)N[C@H]1CSSC[C@@H](C(N)=O)NC(=O)[C@H](CCC)NC(=O)[C@H]([C@@H](C)CC)NC(=O)CN2CCN(CC2)C(=O)[C@H](Cc2ccccc2)NC(=O)[C@H](Cc2ccc(O)cc2)NC(=O)[C@H](CCC(N)=O)NC(=O)[C@H](CCCNC(=N)N)NC1=O [UPAR-271, Pent-[Cys-Arg-Gln-Tyr-Phe-PPAc-Ile-Nva-Cys]-NH2] (Pentanoyl-CRQYF[X1]I[Nva]C-NH2; disulfide 1-9)	≥ 126 nM	> 100 nM
CC[C@H](C)[C@@H]1NC(=O)[C@@H](C)NC(=O)[C@@H]2CCCN2C(=O)[C@H](Cc2ccccc2)NC(=O)[C@H](Cc2ccc(O)cc2)NC(=O)[C@H](CCC(N)=O)NC(=O)[C@H](CCCNC(N)=O)NC(=O)[C@@H](NC(=O)CCO)CSSC[C@@H](C(N)=O)NC(=O)[C@H](CC(C)C)NC1=O [UPAR-272, HPA-[Cys-Cit-Gln-Tyr-Phe-Pro-ala-Ile-Leu-Cys]-NH2] ({Propanoyl(3-OH)}-C[Cit]QYFP[dA]ILC-NH2; disulfide 1-10)	39.8 to 100 nM	> 100 nM
CCCCC(=O)N[C@H]1CSSC[C@@H](C(N)=O)NC(=O)[C@H](CCC)NC(=O)[C@H]([C@@H](C)CC)NC(=O)[C@@H]2C[C@@H](O)CN2C(=O)[C@@H]2CCCN2C(=O)[C@H](Cc2csc3ccccc23)NC(=O)[C@H](Cc2ccc(O)cc2)NC(=O)[C@H](CCC(N)=O)NC(=O)[C@H](CCCNC(=N)N)NC1=O [UPAR-273, Pent-[Cys-Arg-Gln-Tyr-Bta-Pro-Hyp-Ile-Nva-Cys]-NH2] (Pentanoyl-CRQY[Bta]P[Hyp]I[Nva]C-NH2; disulfide 1-10)	≤ 10 nM	< 1.58 nM
CCCC[C@H]1NC(=O)[C@H](CCCNC(=N)N)NC(=O)[C@@H](NC(=O)[C@H](CC(C)C)NC(=O)[C@H](CC(=O)O)NC(C)=O)CSSC[C@@H](C(N)=O)NC(=O)[C@H](CC(C)C)NC(=O)[C@H]([C@@H](C)CC)NC(=O)[C@H](C)NC(=O)[C@@H]2CCCN2C(=O)[C@H](Cc2ccccc2)NC(=O)[C@H](Cc2ccc(O)cc2)NC1=O [UPAR-274, Ac-Asp-Leu-[Cys-Arg-nle-Tyr-Phe-Pro-Ala-Ile-Leu-Cys]-NH2] (Ac-DLCR[dNle]YFPAILC-NH2; disulfide 3-12)	12.6 to 31.6 nM	1.58 to 10 nM
CCCCC(=O)N[C@H]1CSSC[C@@H](C(N)=O)NC(=O)[C@H](CCC)NC(=O)[C@H]([C@@H](C)CC)NC(=O)[C@H](CO)N(C)C(=O)[C@@H]2CCCN2C(=O)[C@H](Cc2ccccc2)NC(=O)[C@H](Cc2ccc(O)cc2)NC(=O)[C@H](CCCCNC(=O)CN2CCN(CC(=O)O)CCN(CC(=O)O)CCN(CC(=O)O)CC2)NC(=O)[C@H](CCCNC(N)=O)NC1=O [UPAR-277, Pent-[Cys-Cit-Lys(DOTA)-Tyr-Phe-Pro-Nms-Ile-Nva-Cys]-NH2] (Pentanoyl-C[Cit]K(DOTA)YFP[NMeS]I[Nva]C-NH2; disulfide 1-10)	39.8 to 100 nM	10 to 100 nM
CCCCOC(=O)N[C@H]1CSSC[C@@H](C(N)=O)NC(=O)[C@H](CCC)NC(=O)[C@H]([C@@H](C)CC)NC(=O)[C@@H]2C[C@@H](O)CN2C(=O)[C@@H]2C[C@H](F)CN2C(=O)[C@H](Cc2ccccc2)NC(=O)[C@H](Cc2ccc(O)c(O)c2)NC(=O)[C@H](CCCNC(=O)CN2CCN(CC(=O)O)CCN(CC(=O)O)CCN(CC(=O)O)CC2)NC(=O)[C@H]([C@@H](C)O)NC1=O [UPAR-280, Butoc-[Cys-Thr-Orn(DOTA)-Dopa-Phe-4Cfp-Hyp-Ile-Nva-Cys]-NH2] (Butoxycarbonyl-CT[Orn](DOTA)[Dopa]F[Pro(cis-4-F)][Hyp]I[Nva]C-NH2; disulfide 1-10)	≤ 10 nM	< 1.58 nM
CCCCC(=O)N[C@H]1CSSC[C@@H](C(N)=O)NC(=O)[C@H](CCC)NC(=O)[C@H]([C@@H](C)CC)NC(=O)[C@H](CC(C)C)NC(=O)[C@@H]2CCCN2C(=O)[C@H](Cc2ccccc2)NC(=O)[C@H](Cc2ccc(O)cc2)NC(=O)[C@H](CCC(N)=O)NC(=O)[C@H](CCCNC(=N)N)NC1=O [UPAR-281, Pent-[Cys-Arg-Gln-Tyr-Phe-Pro-Leu-Ile-Nva-Cys]-NH2] (Pentanoyl-CRQYFPLI[Nva]C-NH2; disulfide 1-10)	≤ 10 nM	< 1.58 nM
